Laboratory results published in US11484032B2, “Compositions for inhibition of insect sensing” (Vanderbilt University, priority 2011, dated 2022).

What was measured:
[1] = tested on: Un-transfected HEK293 cells; test: Whole-cell patch clamp, un-transfected HEK293 control cells; format: cell-based, human
Protocol: Currents from OR-expressing HEK293 cells were amplified with an Axopatch 200b Amplifier (Axon Instruments) and digitized through a Digidata 1322A (Axon Instruments). Electrophysiological data was recorded and analyzed using pCLAMP 10 (Axon Instruments). Electrodes were fabricated from quartz tubing (Sutter Instruments) and pulled to 4-6 MiΩ for whole cell recording. Electrodes were filled with internal solution (120 mM KCl, 30 mM D-glucose, 10 mM HEPES, 2 mM MgCl2, 1.1 mM EGTA, and 0.1 CaCl2) (pH 7.35, 280 mOsm). External (bath) solution contained 130 mM NaCl, 34 mM D-glucose, 10 mM HEPES, 1.5 mM CaCl2), 1.3 mM KH2PO4, and 0.5 MgSO4 (pH 7.35, 300 mOsm). Compounds were diluted in external solution and locally perfused to the recording cell using Perfusion Pencil (Automate Scientific) and controlled by a ValveLink 8.2 controller (Automate Scientific). Whole cell recordings were sampled at 10 kHz and filtered at 5 kHz. Outside-out patches were obtained using 10-15MΩ electrodes pulled from standard glass capillaries (World Precision Instruments) and fire-polished with an MF-830 micro forge (Narishige). Single channel recordings were sampled at 20 kHz. Recordings were reduced to 1 kHz and low-pass filtered at 500 Hz for display and analysis using QuB (SUNY at Buffalo).

[2] = target: T1, AgOrco+AgOR65 (Anopheles gambiae, UniProt Q7QCC7); test: Ca2+ imaging, HEK cells expressing AgOrco+AgOR65; format: cell-based; conditions: heteromeric OR channels AgOrco+AgOR65; read-out: EC50
T1 construct: expressed in transfected cells
T1 sequence (Q7QCC7 1-478): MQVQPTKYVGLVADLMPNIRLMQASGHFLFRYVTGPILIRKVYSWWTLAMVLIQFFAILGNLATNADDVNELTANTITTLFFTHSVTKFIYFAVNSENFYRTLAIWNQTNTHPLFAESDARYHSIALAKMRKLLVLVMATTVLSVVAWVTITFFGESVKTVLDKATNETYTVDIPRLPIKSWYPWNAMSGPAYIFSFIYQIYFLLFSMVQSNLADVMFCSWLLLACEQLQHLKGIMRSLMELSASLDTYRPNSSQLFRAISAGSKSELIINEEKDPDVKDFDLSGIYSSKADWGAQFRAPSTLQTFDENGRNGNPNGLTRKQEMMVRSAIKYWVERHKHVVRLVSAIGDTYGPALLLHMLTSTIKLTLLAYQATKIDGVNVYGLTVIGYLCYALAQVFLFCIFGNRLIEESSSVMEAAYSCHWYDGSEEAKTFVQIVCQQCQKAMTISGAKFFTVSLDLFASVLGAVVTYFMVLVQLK
Description: For transient transfections, ORs were cloned into pCl (Promega) and transfected into Flp-In™ T-REx™293 cell lines (Invitrogen) with Fu GENE6 (Roche). For the creation of stable cell lines, a cell culture expression vector capable of expressing Orco in conjunction with a conventional OR, pcDNA5/FRT/TO (Invitrogen) was modified to create two individual expression cassettes each under the control of a separate CMV/Tet02 promoter and a BGH poly-adenylation signal. Cells (as above) were transfected with the modified pcDNA5 plasmid along with POG44 (a Flp recombinase expression plasmid) to facilitate site-specific recombination. Stable cell lines were selected using Hygromycin B (Invitrogen). Cells were maintained in DMEM (Invitrogen) supplemented with 10% Tetracycline-free FBS (HyClone) and 15 ng/ml Blasticidin. For fluorometric Ca2+ measurements, stable lines expressing ORs of interest were seeded at 20,000 cells/well in black wall, poly-lysine coated 384-well cell culture plates (Greiner) and treated with […] tetracycline (Sigma) overnight to induce OR expression. Cells were dye-loaded with 1.8 uM Fluo-4 AM (Molecular Probes), 2.5 mM Probenecid (Molecular Probes) in assay buffer (20 mM HEPES, IX HBSS) for 45 minutes at 37° C. in 5% CO2 prior to each assay. Ca^2+ mobilization was assayed in an FDSS6000 (Hamamatsu). Baseline readings were taken for 20 s before automated addition of compound previously diluted in DMSO and assay buffer. Ratios were described as Maximum/Minimum response and each response was normalized to the maximum responder.
For VUAA0, a single methyl from the para position of the aniline ring (compound VUAA0, FIG. 44) in the VUAA1 structure was removed. […] In VUAA0.5, unsaturation was introduced at the para position of the aniline ring (VUAA0.5, FIG. 44). […] In VUAA2, the ethyl group of the aniline ring in VUAA1 was replaced with an isopropyl group (VUAA2, FIG. 44).

[3] = target: T2, rat transient receptor potential vanilloid 1 (rTRPV1) (Rattus norvegicus, UniProt O35433); test: Whole-cell patch clamp, HEK cells stably expressing rTRPV1; format: cell-based
T2 construct: expressed in transfected cells
T2 sequence (O35433 whole entry): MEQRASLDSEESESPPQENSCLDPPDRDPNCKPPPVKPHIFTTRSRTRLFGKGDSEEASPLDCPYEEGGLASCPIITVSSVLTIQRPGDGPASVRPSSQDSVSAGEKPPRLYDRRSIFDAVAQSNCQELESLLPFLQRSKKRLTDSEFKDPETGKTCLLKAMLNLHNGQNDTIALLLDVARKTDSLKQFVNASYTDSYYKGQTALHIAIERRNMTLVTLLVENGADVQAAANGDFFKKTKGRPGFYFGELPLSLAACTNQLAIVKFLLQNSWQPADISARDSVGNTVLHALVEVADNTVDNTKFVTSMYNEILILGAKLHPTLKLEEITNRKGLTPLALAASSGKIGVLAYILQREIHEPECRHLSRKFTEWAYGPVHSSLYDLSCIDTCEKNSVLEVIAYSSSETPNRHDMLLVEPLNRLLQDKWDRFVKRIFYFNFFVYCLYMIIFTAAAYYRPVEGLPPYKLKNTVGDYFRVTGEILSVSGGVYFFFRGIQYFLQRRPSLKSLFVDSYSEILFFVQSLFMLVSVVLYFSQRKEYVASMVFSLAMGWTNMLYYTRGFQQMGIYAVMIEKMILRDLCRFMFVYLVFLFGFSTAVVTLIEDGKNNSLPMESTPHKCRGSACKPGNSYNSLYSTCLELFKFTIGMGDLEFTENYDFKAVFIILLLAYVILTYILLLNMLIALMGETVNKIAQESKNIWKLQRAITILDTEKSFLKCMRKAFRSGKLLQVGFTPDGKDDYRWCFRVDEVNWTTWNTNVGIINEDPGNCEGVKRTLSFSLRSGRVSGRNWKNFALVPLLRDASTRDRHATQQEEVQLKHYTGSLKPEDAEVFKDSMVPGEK

[4] = target: T3, DmORco (Drosophila melanogaster, UniProt Q9VNB5); test: Whole-cell patch clamp, HEK cells transiently expressing DmORco; format: cell-based; conditions: DmORco transiently transfected HEK cells
T3 construct: expressed in transfected cells; host or cells: Flp-In T-REx 293 (HEK), transient, pCI vector, GFP co-transfected as a separate marker
T3 sequence (Q9VNB5 1-486): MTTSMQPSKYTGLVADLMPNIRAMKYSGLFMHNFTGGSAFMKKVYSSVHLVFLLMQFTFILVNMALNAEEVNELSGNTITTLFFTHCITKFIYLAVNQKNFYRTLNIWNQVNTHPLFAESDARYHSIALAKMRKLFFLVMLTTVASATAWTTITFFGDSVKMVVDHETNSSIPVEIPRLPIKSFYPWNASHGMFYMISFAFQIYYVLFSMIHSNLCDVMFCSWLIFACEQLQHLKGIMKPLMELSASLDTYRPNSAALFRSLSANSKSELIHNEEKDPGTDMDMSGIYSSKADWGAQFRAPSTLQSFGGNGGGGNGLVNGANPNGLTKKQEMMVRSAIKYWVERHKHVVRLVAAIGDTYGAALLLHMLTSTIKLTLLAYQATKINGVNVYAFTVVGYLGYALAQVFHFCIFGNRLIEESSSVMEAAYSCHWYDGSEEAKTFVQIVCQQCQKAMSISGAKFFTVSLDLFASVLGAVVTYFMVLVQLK
Description: For transient transfections, ORs were cloned into pCl (Promega) and transfected into Flp-In™ T-REx™293 cell lines (Invitrogen) with Fu GENE6 (Roche). For the creation of stable cell lines, a cell culture expression vector capable of expressing Orco in conjunction with a conventional OR, pcDNA5/FRT/TO (Invitrogen) was modified to create two individual expression cassettes each under the control of a separate CMV/Tet02 promoter and a BGH poly-adenylation signal. Cells (as above) were transfected with the modified pcDNA5 plasmid along with POG44 (a Flp recombinase expression plasmid) to facilitate site-specific recombination. Stable cell lines were selected using Hygromycin B (Invitrogen). Cells were maintained in DMEM (Invitrogen) supplemented with 10% Tetracycline-free FBS (HyClone) and 15 ng/ml Blasticidin. […] Baseline readings were taken for 20 s before automated addition of compound previously diluted in DMSO and assay buffer. […]
Currents from OR-expressing HEK293 cells were amplified with an Axopatch 200b Amplifier (Axon Instruments) and digitized through a Digidata 1322A (Axon Instruments). Electrophysiological data was recorded and analyzed using pCLAMP 10 (Axon Instruments). […]

CCc1ccc(NC(=O)CSc2nnc(-c3cccnc3)n2CC)cc1 [VUAA1, 2-((4-ethyl-5-(pyridin-3-yl)-4H-1,2,4-triazol-3-yl)thio)-N-(4-ethylphenyl)acetamide]
whole-cell current response [1]: did not respond
EC50 [2]: 37 µM
whole-cell current response [3]: did not elicit currents
whole-cell current response [4]: robust inward currents
